Source: US6835371B1 (priority 1997, dated 2004)
“And” between values parts separate entries of the source, which are not always exact repeats. Equal entries are not always repeated. Where two headings read alike, the source gives them in different places.

Experiments:
[1] = biological target: T1, human norepinephrine transporter (hNET) (Homo sapiens, UniProt P23975); test: cell-based
[2] = biological target: T1, human norepinephrine transporter (hNET); test: biochemical; assay type: binding
[3] = biological target: T2, human dopamine transporter (hDAT) (Homo sapiens, UniProt Q01959); test: biochemical; assay type: binding
T2 sequence (Q01959 whole entry): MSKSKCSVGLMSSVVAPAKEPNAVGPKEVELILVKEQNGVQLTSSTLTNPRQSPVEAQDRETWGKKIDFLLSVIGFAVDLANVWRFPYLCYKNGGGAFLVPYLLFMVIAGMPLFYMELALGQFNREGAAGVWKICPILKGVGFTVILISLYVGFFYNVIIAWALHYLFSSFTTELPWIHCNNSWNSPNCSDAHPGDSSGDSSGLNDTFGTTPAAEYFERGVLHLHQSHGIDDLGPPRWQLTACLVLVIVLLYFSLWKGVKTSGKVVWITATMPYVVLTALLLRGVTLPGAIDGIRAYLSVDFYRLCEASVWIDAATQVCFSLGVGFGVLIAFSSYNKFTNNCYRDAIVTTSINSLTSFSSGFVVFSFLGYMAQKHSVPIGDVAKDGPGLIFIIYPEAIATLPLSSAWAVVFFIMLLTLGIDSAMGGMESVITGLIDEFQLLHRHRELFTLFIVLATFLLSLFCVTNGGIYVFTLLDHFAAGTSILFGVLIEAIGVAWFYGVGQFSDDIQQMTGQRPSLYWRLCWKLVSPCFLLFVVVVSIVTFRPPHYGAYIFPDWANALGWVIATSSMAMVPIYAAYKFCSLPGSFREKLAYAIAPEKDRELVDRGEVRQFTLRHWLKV

[4] = biological target: T2, human dopamine transporter (hDAT); test: cell-based
male Swiss-Webster mice [5] = test: Cocaine interaction study (locomotor activity); assay type: in vivo
male Swiss-Webster mice [6] = test: animal or person; assay type: in vivo; settings: for ED50: Mus musculus, read-out: ED50 (dose producing ½ maximal stimulant activity)
[7] = read-out: [125I]RTI-55 binding Ki, NET
[8] = read-out: [125I]RTI-55 binding Ki, DAT
[9] = read-out: [3H]Dopamine Uptake IC50
[10] = HEK-hNET cells, read-out: [3H]NE Uptake IC50
[11] = Table 2, read-out: Reuptake [3H]NE (Ki ± SD)
[12] = HEK-hNET cells, read-out: [125I]RTI-55 binding Ki, NET

T1 sequence (P23975 whole entry): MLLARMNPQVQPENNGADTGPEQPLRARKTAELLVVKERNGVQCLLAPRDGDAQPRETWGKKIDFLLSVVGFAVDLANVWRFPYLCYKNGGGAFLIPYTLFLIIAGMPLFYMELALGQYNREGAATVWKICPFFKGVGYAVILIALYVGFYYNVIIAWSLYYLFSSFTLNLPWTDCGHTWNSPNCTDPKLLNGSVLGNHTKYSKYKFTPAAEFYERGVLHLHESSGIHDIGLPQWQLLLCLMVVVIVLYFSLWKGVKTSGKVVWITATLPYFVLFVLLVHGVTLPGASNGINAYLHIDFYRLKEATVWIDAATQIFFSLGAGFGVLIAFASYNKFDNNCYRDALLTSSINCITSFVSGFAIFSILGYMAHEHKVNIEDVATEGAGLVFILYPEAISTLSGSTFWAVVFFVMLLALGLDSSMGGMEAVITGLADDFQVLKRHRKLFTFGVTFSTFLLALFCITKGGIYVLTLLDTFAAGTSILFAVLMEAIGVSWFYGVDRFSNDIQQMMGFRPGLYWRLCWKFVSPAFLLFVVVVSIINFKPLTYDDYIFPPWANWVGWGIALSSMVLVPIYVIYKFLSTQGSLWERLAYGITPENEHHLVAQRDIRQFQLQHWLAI

SMILES	Ki [2, 7] [µM]	Binding discrimination ratio NET/DAT [3]	Binding discrimination ratio SERT/DAT [3]	Hill coefficient [3]	Ki [3, 8] [µM]	Discrimination ratio uptake/binding (DA) [4]	IC50 [4, 9] [nM]	Hill coefficient [2]	Ki ([3]; [125I]RTI-55 binding Ki, DAT) [µM]	IC50 ([1]; read-out: [3H]NE Uptake IC50)	Discrimination Ratio DAT Binding/Reuptake [4]	also measured
O=C1CN(CCCCOC(c2ccc(F)cc2)c2ccc(F)cc2)CCN1 [Compound 31524]	> 10	>2.4	0.4	−064 ± 0.03	4.1	0.6	2290					Ki ([1]; read-out: Reuptake [3H]NE (Ki ± SD)): > 10000 nM; Ki ([4]; read-out: Reuptake [3H]DA (Ki ± SD)): 2290 ± 200 nM
CC(=O)C1(c2ccccc2)CCN(CCCCOC(c2ccc(F)cc2)c2ccc(F)cc2)CC1 [Compound 31525]		5.3	5.8	−0.61 ± 0.01		47.5		−0.71 ± 0.06	0.0217			IC50 [1, 10]: 2550 nM; Ki [1, 11]: 2550 ± 950 nM; Ki [2, 12]: 0.114 µM; IC50 ([4]; HEK-hDAT cells, read-out: [3H]Dopamine Uptake IC50): 1030 nM; Ki ([4]; Table 2, read-out: Reuptake [3H]DA (Ki ± SD)): 1030 ± 330 nM
Fc1ccc(C(OCCCCN2CCN(c3ccccc3F)CC2)c2ccc(F)cc2)cc1 [Compound 31526]		10.8	0.8	−0.86 ± 0.06		11.9		−0.91 ± 0.09	0.0387	700 nM	11.9	Attenuation of cocaine-induced locomotor activity (male Swiss-Webster mice [5]; 0.1-10 mg/kg IP 20 min before 20 mg/kg cocaine IP): did not attenuate locomotor activity induced by 20 mg/kg cocaine; Ki [1]: 700 ± 240 nM; IC50 ([1]; [3H]NE Uptake IC50): 700 nM; Ki ([2]; [125I]RTI-55 binding Ki, NET): 0.417 µM; ED50 (male Swiss-Webster mice [6]; ip): 0.015 mg/kg; Maximal effect/cocaine maximal effect ratio (ME/CME) (male Swiss-Webster mice [6]; mouse, in vivo): 0.49; Maximum effect, horizontal activity (male Swiss-Webster mice [6]; mouse, in vivo): 2716.1 counts/10 min; Dose at estimated maximum effect (male Swiss-Webster mice [6]; mouse, in vivo, ip): 0.64 mg/kg; Doses with significant differences against the vehicle group (p<0.05) (male Swiss-Webster mice [6]; mouse, in vivo, ip): 1 mg/kg; IC50 [4]: 460 nM; Ki [4]: 460 ± 140 nM
Fc1ccc(C(OCCCCN2CCN(c3ccc(F)cc3)CC2)c2ccc(F)cc2)cc1 [Compound 31527]		7.8	1.3	−0.84 ± 0.05		23.0		−0.72 ± 0.05	0.0265		23.0	Ki [1]: 225 ± 28 nM; IC50 ([1]; [3H]NE Uptake IC50): 225 ± 28 nM; Ki ([2]; [125I]RTI-55 binding Ki, NET): 0.207 µM; IC50 [4]: 610 nM; Ki [4]: 610 ± 150 nM
OC1(c2ccccc2)CCN(CCCCOC(c2ccc(F)cc2)c2ccc(F)cc2)CC1 [Compound 31531]		8.4	2.8	−0.63 ± 0.06		15.0		−0.73 ± 0.03	0.0064			IC50 [1, 10]: 179 nM; Ki [1, 11]: 179 ± 47 nM; Ki ([2]; [125I]RTI-55 binding Ki, NET): 0.054 µM; IC50 [4]: 96 nM; Ki [4]: 96 ± 11 nM
Fc1ccc(C(OCCCCN2CCNC(c3ccccc3)C2)c2ccc(F)cc2)cc1 (centres unmarked) [Compound 31533]		49.9	19.6			144.4						Doses with significant differences against the cocaine group (p<0.05) (male Swiss-Webster mice [5]; planned comparisons on log10 horizontal activity counts, 20 mg/kg cocaine IP): 30 mg/kg; Ki [1]: 290 ± 130 nM; ED50 (male Swiss-Webster mice [6]; ip): 1.52 mg/kg; Maximal effect/cocaine maximal effect ratio (ME/CME) (male Swiss-Webster mice [6]; mouse, in vivo): 0.30; Maximum effect, horizontal activity (male Swiss-Webster mice [6]; mouse, in vivo): 1648.6 counts/10 min; Dose at estimated maximum effect (male Swiss-Webster mice [6]; mouse, in vivo, ip): 10.26 mg/kg; Ki [4]: 550 ± 140 nM
OC1(c2ccc(Cl)cc2)CCN(CCCCOC(c2ccc(F)cc2)c2ccc(F)cc2)CC1 [Compound 31625]		51.7	2380	−0.74 ± 0.25				−0.99 ± 0.22	0.0042		95.2	IC50 [1, 10]: 800 nM; Ki [2, 12]: 0.217 µM; IC50 ([4]; HEK-hDAT cells, text of Examples 20 and 24, read-out: [3H]Dopamine Uptake IC50): 400 nM
Fc1ccc(C(OCCCCN2CCN(c3ccccc3Cl)CC2)c2ccc(F)cc2)cc1 [Compound 31626]	0.54	8.1	1.3	−1.11 ± 0.08	0.067		328	−1.39 ± 0.23		290 nM and 299 nM	4.9	
O=C1c2ccccc2C(=O)N1CCCCN1CCC(O)(c2ccc(Br)cc2)CC1 [Compound 31627]		1	>0.2				>10000			>10000 nM		Ki ([2]; HEK-hNET cells, bound given in μM, read-out: [125I]RTI-55 binding Ki, NET): > 10 µM; Ki ([3]; HEK-hDAT cells, bound given in μM, read-out: [125I]RTI-55 binding Ki, DAT): > 10 µM
NC(=O)C1CCCN(CCCCOC(c2ccc(F)cc2)c2ccc(F)cc2)C1 (centres unmarked) [Compound 31628]	0.578	6.1	1.4	−1.02 ± 0.16	0.094		56	−1.48 ± 0.70		158 nM	0.6	
OC1CCN(CCCCOC(c2ccc(F)cc2)c2ccc(F)cc2)CC1 [Compound 31648]	0.61	5.4	3.7	−0.69 ± 0.07	0.124 ± 0.027		101	−0.75 ± 0.06		143 nM	0.9	
O=c1[nH]c2ccccc2n1C1CCN(CCCCOC(c2ccc(F)cc2)c2ccc(F)cc2)CC1 [Compound 31649]	0.0222	16.8	2.9	−0.63 ± 0.23	0.00132		426	−0.47 ± 0.03		132 nM	323	
OC1CCCN(CCCCOC(c2ccc(F)cc2)c2ccc(F)cc2)C1 (centres unmarked) [Compound 31650]	0.611	6.7	4.8	−0.82 ± 0.15	0.091		114	−0.66 ± 0.05		310 nM	1.3	
Fc1ccc(C(OCCCCN2CCN(c3cccc(Cl)c3)CC2)c2ccc(F)cc2)cc1 [Compound 31651]	0.3 ± 0.07	1.7	0.8		0.175 ± 0.071		1670 ± 440			189 ± 89 nM	9.5	
Fc1ccc(C(OCCCCN2CCN(c3ccc(Cl)cc3)CC2)c2ccc(F)cc2)cc1 [Compound 31652]		7.6	0.7	−1.08 ± 0.18				−0.80 ± 0.08	0.05	390 nM	23.4	IC50 ([1]; [3H]NE Uptake IC50): 390 nM; Ki ([2]; [125I]RTI-55 binding Ki, NET): 0.38 µM and 3.8 µM; IC50 [4]: 1170 nM
Fc1ccc(C(OCCCCN2CCN(c3ccccc3)CC2)c2ccc(F)cc2)cc1 [Compound 31653]		3.3	0.8	−1.14 ± 0.10				−0.93 ± 0.17	0.0609		23.2	IC50 ([1]; [3H]NE Uptake IC50): 56.3 nM; Ki ([2]; [125I]RTI-55 binding Ki, NET): 0.203 µM; IC50 [4]: 1410 nM
COc1ccccc1N1CCN(CCCCOC(c2ccc(F)cc2)c2ccc(F)cc2)CC1 [Compound 31654]	0.092	3.5	9.7	−0.88 ± 0.09	0.0262		301	−0.59 ± 0.02		176 nM	11.5	
